What was measured:
Format in all cases: in vivo
Yellow nutsedge [1] = assay: Pre-emergence herbicide test; details: Cyperus, read-out: % plant inhibition (Yens); for inhibition at 11210 g/ha: 11.21 kg/ha; for inhibition at 1120 g/ha: 1.12 kg/ha
How it was run: (§1)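 Greenhouse pans: topsoil compacted to within 0.95-1.27 cm of top, seeds laid on surface, active ingredient (organic solvent or water carrier) applied, untreated topsoil cover added. Watered from below; % inhibition at ~11 d.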

Annual bluegrass [2] = assay: Pre-emergence herbicide test; details: read-out: % plant inhibition (Anbg); for inhibition at 11210 g/ha: 11.21 kg/ha; for inhibition at 1120 g/ha: 1.12 kg/ha
How it was run: as §1

Downy Brome [3] = assay: Pre-emergence herbicide test; details: Bromus tectorum, read-out: % plant inhibition (Dobr); for inhibition at 11210 g/ha: 11.21 kg/ha; for inhibition at 1120 g/ha: 1.12 kg/ha
How it was run: as §1

Morningglory [4] = assay: Pre-emergence herbicide test; details: Ipomoea, read-out: % plant inhibition (Mogl); for inhibition at 11210 g/ha: 11.21 kg/ha; for inhibition at 1120 g/ha: 1.12 kg/ha
How it was run: as §1

Wild buckwheat [5] = assay: Pre-emergence herbicide test; details: Fallopia convolvulus, read-out: % plant inhibition (Wibw); for inhibition at 11210 g/ha: 11.21 kg/ha; for inhibition at 1120 g/ha: 1.12 kg/ha
How it was run: as §1

Velvetleaf [6] = assay: Pre-emergence herbicide test; details: Abutilon theophrasti, read-out: % plant inhibition (Vele); for inhibition at 11210 g/ha: 11.21 kg/ha; for inhibition at 1120 g/ha: 1.12 kg/ha
How it was run: as §1

Seedling johnsongrass [7] = assay: Pre-emergence herbicide test; details: Sorghum halepense, read-out: % plant inhibition (Sejg); for inhibition at 11210 g/ha: 11.21 kg/ha; for inhibition at 1120 g/ha: 1.12 kg/ha
How it was run: as §1

Indian Mustard [8] = assay: Pre-emergence herbicide test; details: Brassica juncea, read-out: % plant inhibition (Inmu); for inhibition at 11210 g/ha: 11.21 kg/ha; for inhibition at 1120 g/ha: 1.12 kg/ha
How it was run: as §1

Cocklebur [9] = assay: Pre-emergence herbicide test; details: Xanthium strumarium, read-out: % plant inhibition (Cobu); for inhibition at 11210 g/ha: 11.21 kg/ha; for inhibition at 1120 g/ha: 1.12 kg/ha
How it was run: as §1

Barnyardgrass [10] = assay: Pre-emergence herbicide test; details: Echinochloa crus-galli, read-out: % plant inhibition (Bygr); for inhibition at 11210 g/ha: 11.21 kg/ha; for inhibition at 1120 g/ha: 1.12 kg/ha
How it was run: as §1

Yellow nutsedge [11] = assay: Post-emergence herbicide test; details: Cyperus, read-out: % plant inhibition (Yens); for inhibition at 11210 g/ha: 11.21 kg/ha; for inhibition at 1120 g/ha: 1.12 kg/ha
How it was run: (§2)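 Greenhouse-raised seedlings and perennial propagule shoots, aged 2–3 weeks, receive an atomized spray at 10 psig. The solution or suspension carries roughly 0.4% emulsifier and is applied at 200 gallons/acre; injury is rated as % inhibition after about 11 days.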

Annual bluegrass [12] = assay: Post-emergence herbicide test; details: read-out: % plant inhibition (Anbg); for inhibition at 11210 g/ha: 11.21 kg/ha; for inhibition at 1120 g/ha: 1.12 kg/ha
How it was run: as §2

Downy Brome [13] = assay: Post-emergence herbicide test; details: Bromus tectorum, read-out: % plant inhibition (Dobr); for inhibition at 11210 g/ha: 11.21 kg/ha; for inhibition at 1120 g/ha: 1.12 kg/ha
How it was run: as §2

Morningglory [14] = assay: Post-emergence herbicide test; details: Ipomoea, read-out: % plant inhibition (Mogl); for inhibition at 11210 g/ha: 11.21 kg/ha; for inhibition at 1120 g/ha: 1.12 kg/ha
How it was run: as §2

Wild buckwheat [15] = assay: Post-emergence herbicide test; details: Fallopia convolvulus, read-out: % plant inhibition (Wibw); for inhibition at 11210 g/ha: 11.21 kg/ha; for inhibition at 1120 g/ha: 1.12 kg/ha
How it was run: as §2

Velvetleaf [16] = assay: Post-emergence herbicide test; details: Abutilon theophrasti, read-out: % plant inhibition (Vele); for inhibition at 11210 g/ha: 11.21 kg/ha; for inhibition at 1120 g/ha: 1.12 kg/ha
How it was run: as §2

Seedling johnsongrass [17] = assay: Post-emergence herbicide test; details: Sorghum halepense, read-out: % plant inhibition (Sejg); for inhibition at 11210 g/ha: 11.21 kg/ha; for inhibition at 1120 g/ha: 1.12 kg/ha
How it was run: as §2

Indian Mustard [18] = assay: Post-emergence herbicide test; details: Brassica juncea, read-out: % plant inhibition (Inmu); for inhibition at 11210 g/ha: 11.21 kg/ha; for inhibition at 1120 g/ha: 1.12 kg/ha
How it was run: as §2

Cocklebur [19] = assay: Post-emergence herbicide test; details: Xanthium strumarium, read-out: % plant inhibition (Cobu); for inhibition at 11210 g/ha: 11.21 kg/ha; for inhibition at 1120 g/ha: 1.12 kg/ha
How it was run: as §2

Barnyardgrass [20] = assay: Post-emergence herbicide test; details: Echinochloa crus-galli, read-out: % plant inhibition (Bygr); for inhibition at 11210 g/ha: 11.21 kg/ha; for inhibition at 1120 g/ha: 1.12 kg/ha
How it was run: as §2

| SMILES | inhibition at 11210 g/ha (Yellow nutsedge [1]) [%] | inhibition at 11210 g/ha (Annual bluegrass [2]) [%] | inhibition at 11210 g/ha (Downy Brome [3]) [%] | inhibition at 11210 g/ha (Morningglory [4]) [%] | inhibition at 11210 g/ha (Wild buckwheat [5]) [%] | inhibition at 11210 g/ha (Velvetleaf [6]) [%] | inhibition at 11210 g/ha (Seedling johnsongrass [7]) [%] | inhibition at 11210 g/ha (Indian Mustard [8]) [%] | inhibition at 11210 g/ha (Cocklebur [9]) [%] | inhibition at 11210 g/ha (Barnyardgrass [10]) [%] | inhibition at 11210 g/ha (Yellow nutsedge [11]) [%] | inhibition at 11210 g/ha (Annual bluegrass [12]) [%] | inhibition at 11210 g/ha (Downy Brome [13]) [%] | inhibition at 11210 g/ha (Morningglory [14]) [%] | inhibition at 11210 g/ha (Wild buckwheat [15]) [%] | inhibition at 11210 g/ha (Velvetleaf [16]) [%] | inhibition at 11210 g/ha (Seedling johnsongrass [17]) [%] | inhibition at 11210 g/ha (Indian Mustard [18]) [%] | inhibition at 11210 g/ha (Cocklebur [19]) [%] | inhibition at 11210 g/ha (Barnyardgrass [20]) [%] | also measured |
| --- | --- | --- | --- | --- | --- | --- | --- | --- | --- | --- | --- | --- | --- | --- | --- | --- | --- | --- | --- | --- | --- |
| Cn1nc(-c2cc(CC(N)=O)c(Cl)cc2F)c(Cl)c1C(F)(F)F [Compound 112] | 80 | 100 | 20 | 100 | 90 | 100 | 90 | 100 | 40 | 100 | 40 | 30 | 0 | 80 | 70 | 100 | 30 | 40 | 60 | 60 | – |
| CCOCc1cc(-c2nn(C)c(C(F)(F)F)c2Cl)c(F)cc1Cl [Compound 118] | – | – | – | – | – | – | – | – | – | – | – | – | – | – | – | – | – | – | – | – | inhibition at 1120 g/ha (Yellow nutsedge [1]): 0%; inhibition at 1120 g/ha (Annual bluegrass [2]): 100%; inhibition at 1120 g/ha (Downy Brome [3]): 100%; inhibition at 1120 g/ha (Morningglory [4]): 100%; inhibition at 1120 g/ha (Wild buckwheat [5]): 100%; inhibition at 1120 g/ha (Velvetleaf [6]): 90%; inhibition at 1120 g/ha (Seedling johnsongrass [7]): 90%; inhibition at 1120 g/ha (Indian Mustard [8]): 100%; inhibition at 1120 g/ha (Cocklebur [9]): 80%; inhibition at 1120 g/ha (Barnyardgrass [10]): 90%; inhibition at 1120 g/ha (Yellow nutsedge [11]): 30%; inhibition at 1120 g/ha (Annual bluegrass [12]): 30%; inhibition at 1120 g/ha (Downy Brome [13]): 20%; inhibition at 1120 g/ha (Morningglory [14]): 60%; inhibition at 1120 g/ha (Wild buckwheat [15]): 100%; inhibition at 1120 g/ha (Velvetleaf [16]): 90%; inhibition at 1120 g/ha (Seedling johnsongrass [17]): 30%; inhibition at 1120 g/ha (Indian Mustard [18]): 30%; inhibition at 1120 g/ha (Cocklebur [19]): 80%; inhibition at 1120 g/ha (Barnyardgrass [20]): 30% |
| COc1cc(-c2c(Cl)c(C(F)(F)F)nn2C)c(F)cc1[N+](=O)[O-] [Compound 72] | 0 | 20 | 20 | 40 | 90 | 90 | 60 | 90 | 20 | 60 | 10 | 10 | 20 | 30 | 90 | 90 | 10 | 30 | 60 | 50 | – |
| CC(C#N)c1cc(-c2nn(C)c(C(F)(F)F)c2Cl)c(F)cc1Cl (stereo not shown) [Compound 106] | – | – | – | – | – | – | – | – | – | – | – | – | – | – | – | – | – | – | – | – | inhibition at 1120 g/ha (Yellow nutsedge [1]): 0%; inhibition at 1120 g/ha (Annual bluegrass [2]): 30%; inhibition at 1120 g/ha (Downy Brome [3]): 80%; inhibition at 1120 g/ha (Morningglory [4]): 60%; inhibition at 1120 g/ha (Wild buckwheat [5]): 100%; inhibition at 1120 g/ha (Velvetleaf [6]): 80%; inhibition at 1120 g/ha (Seedling johnsongrass [7]): 80%; inhibition at 1120 g/ha (Indian Mustard [8]): 90%; inhibition at 1120 g/ha (Cocklebur [9]): 20%; inhibition at 1120 g/ha (Barnyardgrass [10]): 80%; inhibition at 1120 g/ha (Yellow nutsedge [11]): 10%; inhibition at 1120 g/ha (Annual bluegrass [12]): 30%; inhibition at 1120 g/ha (Downy Brome [13]): 20%; inhibition at 1120 g/ha (Morningglory [14]): 100%; inhibition at 1120 g/ha (Wild buckwheat [15]): 90%; inhibition at 1120 g/ha (Velvetleaf [16]): 100%; inhibition at 1120 g/ha (Seedling johnsongrass [17]): 40%; inhibition at 1120 g/ha (Indian Mustard [18]): 60%; inhibition at 1120 g/ha (Cocklebur [19]): 60%; inhibition at 1120 g/ha (Barnyardgrass [20]): 60% |
| CCS(=O)(=O)N(c1cc(-c2nn(C)c(C(F)(F)F)c2Cl)c(Cl)cc1Cl)S(=O)(=O)CC [Compound 90] | 0 | 10 | 10 | 10 | 30 | 20 | 50 | 10 | 0 | 10 | 0 | 10 | 10 | 60 | 50 | 100 | 0 | 50 | 30 | 0 | – |

From patent US5530126A, “Process for the preparation of substituted 6-(pyrazol-3yl)-1,4-benzoxazin-3-ones” (Monsanto Company, priority 1994, dated 1996)
